13 compounds from ChEMBL document CHEMBL1201862, “PubChem BioAssay data set” (2004) can be followed below.

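Values below derive from 48-hour exposures of cells grown in 96-well plates, with endpoints linearly interpolated between the two concentrations bracketing the appropriate inhibition level. GI50 marks 50% less growth.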 Calls of active or inactive are those of the source. Rule as the data show it: active = GI50 up to about 1.1 µM and inactive = higher.

Some test systems named below: SF-539; UO-31; 786-0; HT-29; HCT-15; HOP-62; MDA-N; DU-145; NCI/ADR-RES; OVCAR-5; OVCAR-8; SK-OV-3; KM12; BT-549; SF-268; SF-295; RXF 393; Hs-578T; A498.
Common to all, as to assay: NCI tumour cell line growth inhibition, 48 h

For the compound `Cn1c(S)nnc1CNc1ccc(-c2nnc(S)n2C)cc1`, the GI50 is > 100 µM (inactive) with SF-539; > 100 µM (inactive) in the assay with UO-31; > 100 µM (inactive) in the assay with 786-0; > 100 µM (inactive) in the assay on HT-29; above 100 µM in the assay on HCT-15; > 100 µM (inactive) in the assay with HOP-62. Also, the GI50 in the assay on MDA-N, in the assay on DU-145, in the assay with NCI/ADR-RES, in the assay with OVCAR-5, with OVCAR-8 and in the assay on SK-OV-3 was > 100 µM (inactive) each time. The GI50 in the assay with KM12, in the assay on BT-549, with SF-268 and with SF-295 was > 100 µM (inactive) in each case.
In the case of `CC(=O)N1CC(C)(C)c2c1cc(C)c(O)c2C`, the GI50 in the assay with SF-539 was > 100 µM (inactive); in the assay with UO-31, > 100 µM (inactive); with 786-0 it was > 100 µM (inactive); with HT-29, > 100 µM (inactive); in the assay on HCT-15, above 100 µM; in the assay on HOP-62 it was > 100 µM (inactive). Moreover, the GI50 in the assay on RXF 393, in the assay on MDA-N, with DU-145, in the assay on NCI/ADR-RES, in the assay with OVCAR-5 and in the assay on OVCAR-8 was > 100 µM (inactive) in each case. Further, the GI50 with SK-OV-3, in the assay on KM12, in the assay on Hs-578T, with SF-268, with A498 and in the assay with SF-295 was > 100 µM (inactive) throughout.
In the case of `CC(NNC(=O)c1ccncc1)c1cccc(C(F)(F)F)c1` (stereo not given), the GI50 with SF-539 was > 100 µM (inactive); in the assay with UO-31 it was > 100 µM (inactive); with 786-0, > 100 µM (inactive); with HT-29 it was > 100 µM (inactive); with HCT-15, above 100 µM; in the assay on HOP-62 it was > 100 µM (inactive). Moreover, the GI50 in the assay on RXF 393, in the assay on MDA-N, with DU-145, in the assay with NCI/ADR-RES, in the assay on OVCAR-5 and in the assay with OVCAR-8 was > 100 µM (inactive) each time. Also, the GI50 with SK-OV-3, in the assay with KM12, in the assay on Hs-578T, in the assay on SF-268, in the assay on A498 and with SF-295 was > 100 µM (inactive) in each case.
For the compound `O=S(=O)(c1ccc(/N=C2\NC(c3ccc(O)cc3)(c3ccccc3O)c3ccccc32)cc1)c1ccc(/N=C2/NC(c3ccc(O)cc3)(c3ccccc3O)c3ccccc32)cc1` (stereo not given), the GI50 in the assay on SF-539 is 2.75 µM (inactive); in the assay with UO-31 it was 21.5 µM (inactive); in the assay with 786-0 it was 3.02 µM (inactive); in the assay with HT-29, 3.09 µM (inactive); with HCT-15, 5.79 µM; in the assay on HOP-62, 5.28 µM (inactive). The GI50 is 4.02 µM (inactive) with RXF 393; 2.99 µM (inactive) in the assay on MDA-N; 4.65 µM (inactive) with DU-145; 24.7 µM (inactive) in the assay on NCI/ADR-RES; 9.27 µM (inactive) with OVCAR-5; 3.33 µM (inactive) with OVCAR-8. Moreover, the GI50 was 9.82 µM (inactive) in the assay on SK-OV-3; 2.48 µM (inactive) in the assay with KM12; 3.4 µM (inactive) with Hs-578T; 3.38 µM (inactive) with SF-268; 11.9 µM (inactive) with A498; 5.28 µM (inactive) in the assay on SF-295.
As for `CC(C)(O)/C=C\P(=O)(O)O`, the GI50 in the assay on SF-539 is > 100 µM (inactive); in the assay on 786-0 it was > 100 µM (inactive); with HT-29 it was > 100 µM (inactive); in the assay on HCT-15, above 100 µM; in the assay on HOP-62, > 100 µM (inactive); in the assay on RXF 393, > 100 µM (inactive). Also, the GI50 in the assay with MDA-N, with DU-145, in the assay with NCI/ADR-RES, with OVCAR-5, in the assay on OVCAR-8 and with SK-OV-3 was > 100 µM (inactive) throughout. In addition, the GI50 with KM12, with Hs-578T, in the assay on SF-268 and in the assay on SF-295 was > 100 µM (inactive) each time.
In the case of `COc1ccc(C2=C(Cl)c3cc(OC)c(OC)cc3C2Cl)cc1OC` (stereo not given), the GI50 in the assay with UO-31 was 16.3 µM (inactive); with 786-0 it was 19.1 µM (inactive); in the assay on HT-29, 16.3 µM (inactive); with HCT-15, 18.2 µM; in the assay with HOP-62, 16.5 µM (inactive); in the assay on RXF 393 it was 14.2 µM (inactive). In addition, the GI50 is 16.3 µM (inactive) in the assay on OVCAR-5, 15.4 µM (inactive) in the assay with OVCAR-8, 32.1 µM (inactive) in the assay on SK-OV-3 and 18.3 µM (inactive) in the assay with SF-295.
`COc1ccc(/C=C2\C(=O)N(C)C(=O)c3cc(OC)c(OC)cc32)cc1OC`: the GI50 in the assay on SF-539 is 34.9 µM (inactive); in the assay on UO-31, 48 µM (inactive); in the assay with 786-0, 43.5 µM (inactive); in the assay with HT-29 it was 9.06 µM (inactive); with HCT-15, 30.8 µM; in the assay with HOP-62, 29.9 µM (inactive). In addition, the GI50 in the assay with RXF 393 was 23.6 µM (inactive); in the assay with MDA-N it was 24.3 µM (inactive); with DU-145, 25.3 µM (inactive); in the assay on OVCAR-5 it was 48.9 µM (inactive); with BT-549, 17.6 µM (inactive); in the assay with A498 it was 27.4 µM (inactive). In the assay on SF-295, the GI50 was 37.8 µM (inactive).
With `CCCC(=O)CC(C)C(=O)C(=O)NC12CC3CC(CC(C3)C1)C2` (stereo not given), the GI50 in the assay with UO-31 is > 100 µM (inactive); in the assay on 786-0, > 100 µM (inactive); with HT-29, > 100 µM (inactive); in the assay with HCT-15, above 100 µM; in the assay on HOP-62, > 100 µM (inactive); in the assay on RXF 393, > 100 µM (inactive). Further, the GI50 in the assay with OVCAR-5, in the assay with OVCAR-8, in the assay with KM12, in the assay with SF-268 and in the assay with SF-295 was > 100 µM (inactive) throughout.
Consider `CCOC(=O)N1CCC2(CC1)C[C@](C)(C(C)=O)C(C)O2` (stereo not given in full), for which the GI50 with SF-539 is > 100 µM (inactive); with UO-31, > 100 µM (inactive); with 786-0, > 100 µM (inactive); in the assay with HT-29, > 100 µM (inactive); in the assay on HCT-15, above 100 µM; in the assay on HOP-62, > 100 µM (inactive). Also, the GI50 in the assay with NCI/ADR-RES, with OVCAR-5, in the assay with OVCAR-8, with SK-OV-3, with KM12 and in the assay with Hs-578T was > 100 µM (inactive) each time. Further, the GI50 in the assay with SF-268, in the assay with A498 and in the assay with SF-295 was > 100 µM (inactive) in each case.
Take `OC1c2ccccc2CCC1C(O)(C(F)(F)F)C(F)(F)F` (stereo not given): the GI50 in the assay on SF-539 is > 100 µM (inactive); in the assay with UO-31, > 100 µM (inactive); with 786-0, > 100 µM (inactive); in the assay on HT-29 it was > 100 µM (inactive); in the assay on HCT-15, above 100 µM; in the assay on HOP-62 it was > 100 µM (inactive). In addition, the GI50 with RXF 393, in the assay on MDA-N, with DU-145, in the assay on NCI/ADR-RES, in the assay on OVCAR-5 and in the assay with OVCAR-8 was > 100 µM (inactive) each time. Besides, the GI50 in the assay on SK-OV-3, in the assay with KM12, in the assay on Hs-578T, in the assay on SF-268, in the assay on A498 and in the assay with SF-295 was > 100 µM (inactive) each time.
Regarding `Cc1cc(C)nc(NC(=O)c2ccc(Br)s2)c1`, the GI50 with SF-539 is 56.9 µM (inactive); in the assay with UO-31, 25.6 µM (inactive); with 786-0, > 100 µM (inactive); in the assay with HT-29, > 100 µM (inactive); in the assay on HCT-15, 94.8 µM; in the assay on HOP-62, > 100 µM (inactive). Further, the GI50 with RXF 393 is > 100 µM (inactive); with MDA-N it was 31.8 µM (inactive); in the assay on DU-145, > 100 µM (inactive); with NCI/ADR-RES, > 100 µM (inactive); in the assay on OVCAR-5, 17.7 µM (inactive); in the assay with OVCAR-8, > 100 µM (inactive). Besides, the GI50 was > 100 µM (inactive) in the assay on SK-OV-3; > 100 µM (inactive) in the assay on KM12; > 100 µM (inactive) in the assay with BT-549; > 100 µM (inactive) with SF-268; 30.5 µM (inactive) with A498; 20.5 µM (inactive) in the assay on SF-295.
As to `COC(=O)C1CCC(=O)N1CN(C(C)=O)c1cccc(O)c1` (stereo not given), the GI50 was > 100 µM (inactive) with SF-539; > 100 µM (inactive) in the assay with UO-31; > 100 µM (inactive) with 786-0; > 100 µM (inactive) in the assay with HT-29; above 100 µM with HCT-15; > 100 µM (inactive) with HOP-62. For the same compound, the GI50 in the assay with RXF 393, in the assay with MDA-N, in the assay with DU-145, in the assay with NCI/ADR-RES, in the assay with OVCAR-5 and with OVCAR-8 was > 100 µM (inactive) each time. The GI50 with SK-OV-3, in the assay with KM12, with Hs-578T, in the assay on SF-268, with A498 and with SF-295 was > 100 µM (inactive) each time.
For `O=[N+]([O-])c1ccc(Cl)cc1C1ON=C(c2ccccc2)N1C12CC3CC(CC(C3)C1)C2` (stereo not given), the GI50 in the assay with SF-539 was > 100 µM (inactive); in the assay on UO-31, > 100 µM (inactive); in the assay on 786-0 it was > 100 µM (inactive); in the assay on HT-29, > 100 µM (inactive); with HCT-15 it was above 100 µM; in the assay on HOP-62, > 100 µM (inactive). The GI50 in the assay with RXF 393, in the assay on MDA-N, in the assay on DU-145, with NCI/ADR-RES, in the assay on OVCAR-5 and in the assay on SK-OV-3 was > 100 µM (inactive) throughout. Also, the GI50 in the assay on Hs-578T, with SF-268, in the assay on A498 and in the assay on SF-295 was > 100 µM (inactive) throughout.
